Converted amounts (≈) assume the structure as drawn. Where two headings read alike, the source gives them in different places.

This is an account of results in patent US20160194299A1 (priority 2013, published 2016).

Data set [1] has as its system Mtb. Nature of the data set: microbe, parasite or virus in culture. The settings on record: for MIC: Mycobacterium tuberculosis, read-out: MIC (II). The format is cell-based, Mycobacterium tuberculosis.
Data set [2] has as its system Mtb. Briefly: microbe, parasite or virus in culture. The format is cell-based, Mycobacterium tuberculosis. As to conditions: for MIC: Mycobacterium tuberculosis, read-out: MIC (I).
In data set [3] the test system is Mtb. Briefly: microbe, parasite or virus in culture. The format is cell-based, Mycobacterium tuberculosis. The settings on record: Mycobacterium tuberculosis, read-out: MIC (III).
The next data set is described as follows: in vitro. The settings on record: African green monkey.

`N#Cc1ccccc1NC(=O)c1nc2ccccc2s1` [Compound 215]: the “LC50 (IV)” value with Vero cells is “A (key: A: >50 μg/mL; B: 50-25 μg/mL; C: <25 μg/mL)”.
On to `CCOC(=O)NC(=O)c1ccsc1NC(=O)c1ccnc(NS(=O)(=O)c2ccc(C)cc2)c1` [Compound 153], for which the MIC in the data set with Mtb [1] is more than 3 µg/mL.
Regarding `CCOC(=O)NC(=O)c1ccsc1NC(=O)c1ccc2c(c1)NC(=O)CS2` [Compound 9], the MIC in the data set on Mtb [1] was in the range of 1 to 3 µg/mL (≈ 2.47 to 7.4 µM).
For `COC(=O)NC(=O)c1ccsc1NC(=O)c1ccc(S(=O)(=O)N2CCCC2)cc1` [Compound 5], the MIC with Mtb [1] is less than 1 µg/mL.
Regarding `CCOC(=O)NC(=O)c1ccsc1NC(=O)c1ccc(OC)cc1` [Compound 174], the MIC in the data set with Mtb [1] is more than 3 µg/mL.
Regarding `CCOC(=O)NC(=O)c1ccsc1NC(=O)c1ccnc(NC(=O)OCc2ccccc2)c1` [Compound 154], the MIC in the data set on Mtb [1] was more than 3 µg/mL.
The same measure, in the same setting: the result for `CC(=O)Nc1cc(C(=O)Nc2sccc2C(=O)N(C)C)ccn1` [Compound 205] reads more than 3 µg/mL; that for `CCOC(=O)NC(=O)c1ccsc1NC(=O)c1ccc(S(C)(=O)=O)c([N+](=O)[O-])c1` [Compound 148], more than 3 µg/mL.
Turning to `COC(=O)Nc1cc(C(=O)Nc2sccc2C(=O)Nc2ccccn2)ccn1` [Compound 198], in the data set on Mtb [1], the MIC is more than 3 µg/mL.
On the same count and under the same terms, under `CCOC(=O)NC(=O)c1ccsc1NC(=O)c1cn2c(-c3ccc(C(F)(F)F)cc3)cnc2cn1` [Compound 202] stands more than 3 µg/mL; under `CCOC(=O)NC(=O)c1c(NC(=O)c2ccnc(NC(C)=O)c2)sc2c1CCN(CC)C2` [Compound 188], more than 3 µg/mL; under `CCOC(=O)NC(=O)c1ccsc1NC(=O)c1cnccn1` [Compound 166], more than 3 µg/mL.
For `CC(=O)Nc1cc(C(=O)Nc2sccc2S(=O)(=O)c2ccccn2)ccn1` [Compound 194], in the data set on Mtb [1], the MIC was more than 3 µg/mL.
Turning to `CCOC(=O)NC(=O)c1ccsc1NC(=O)c1c(F)ccc(C)c1F` [Compound 175], the MIC with Mtb [1] is more than 3 µg/mL.
Regarding `CCOC(=O)NC(=O)c1ccsc1NC(=O)c1ccnc(NC(=O)C(F)(F)F)c1` [Compound 193], the MIC in the data set with Mtb [1] is more than 3 µg/mL.
Consider `CCOC(=O)NC(=O)c1ccsc1NC(=O)c1ccc(Oc2ccc(F)cc2)cc1` [Compound 203], for which the MIC with Mtb [1] is more than 3 µg/mL.
As to `CC(=O)Nc1cc(C(=O)Nc2sccc2C(=O)N2CCCCC2)ccn1` [Compound 180], in the data set with Mtb [1], the MIC is more than 3 µg/mL.
`C#CCNC(=O)[C@H](CCC1(C)N=N1)NC(=O)CCC(=O)Nc1cc(C(=O)Nc2sccc2C(=O)NC(=O)OCC)ccn1` [Compound 98]: the MIC with Mtb [1] lay within 1 to 3 µg/mL (≈ 1.64 to 4.91 µM).
For the compound `CS(=O)(=O)N1CCN(C(=O)c2ccsc2NC(=O)c2nc3ccccc3s2)CC1` [Compound 229], the “LC50 (IV)” value in the data set on Vero cells is given as “A (key: A: >50 μg/mL; B: 50-25 μg/mL; C: <25 μg/mL)”.
As to `CCOC(=O)NC(=O)c1ccsc1NC(=O)c1cnc(N2CCOCC2)nc1` [Compound 152], the MIC in the data set on Mtb [1] is more than 3 µg/mL.
The same measure, in the same setting: the result for `CCOC(=O)NC(=O)c1ccsc1NC(=O)c1cc2ccccc2n1C` [Compound 195] reads more than 3 µg/mL.
With `CCOC(=O)NC(=O)c1ccsc1NC(=O)c1ccc(C#N)cc1` [Compound 207], the MIC with Mtb [1] is more than 3 µg/mL.
With `CC(=O)Nc1cc(C(=O)Nc2sccc2S(=O)(=O)c2ccccc2)ccn1` [Compound 156], in the data set with Mtb [1], the MIC is more than 3 µg/mL.
Same read-out and setting: under `CCOC(=O)c1c(NC(=O)c2ccnc(NC(C)=O)c2)sc2c1CCCC2` [Compound 186] stands more than 3 µg/mL.
Same read-out and setting: the result for `CCOC(=O)NC(=O)c1ccsc1NC(=O)C1CCN(c2ccccn2)CC1` [Compound 155] reads more than 3 µg/mL; that for `CCOC(=O)NC(=O)c1c(NC(=O)c2ccnc(NC(C)=O)c2)sc2c1CCCC2` [Compound 185], more than 3 µg/mL.
Turning to `CCOC(=O)NC(=O)c1ccsc1NC(=O)c1cncs1` [Compound 158], in the data set with Mtb [1], the MIC is more than 3 µg/mL.
In the case of `CCOC(=O)NC(=O)c1ccccc1NC(=O)c1ccnc(NC(C)=O)c1` [Compound 187], in the data set on Mtb [1], the MIC was more than 3 µg/mL.
As for `CCOC(=O)NC(=O)c1ccsc1NC(=O)c1ccnc(N(C)C)c1` [Compound 168], in the data set with Mtb [1], the MIC was more than 3 µg/mL.
As to `CCOC(=O)NC(=O)c1ccsc1NC(=O)c1ccnc(OCC)c1` [Compound 149], the MIC in the data set on Mtb [1] is more than 3 µg/mL.
For the compound `O=C(NC(=O)c1ccsc1NC(=O)c1nc2ccccc2s1)OCCF` [Compound 20], the “MIC (I)” value against Mtb [2] is listed as “A (key: A: <1 μg/mL; B: 1-3 μg/mL; C: >3 μg/mL)”. The “LC50 (IV)” value in the data set on Vero cells is listed as “C (key: A: >50 μg/mL; B: 50-25 μg/mL; C: <25 μg/mL)”.
Turning to `CCOC(=O)NC(=O)c1ccsc1NC(=O)c1ccnc(N)c1` [Compound 163], in the data set with Mtb [1], the MIC is more than 3 µg/mL.
For `CNC(=O)c1ccsc1NC(=O)c1ccnc(NC(C)=O)c1` [Compound 183], the MIC with Mtb [1] is more than 3 µg/mL.
For the compound `CC(C)c1nnc(NC(=O)c2ccsc2NC(=O)c2nc3ccccc3s2)o1` [Compound 160], in the data set with Mtb [1], the MIC was more than 3 µg/mL.
For `CCOc1n[nH]c(-c2ccsc2NC(=O)c2nc3ccccc3s2)n1` [Compound 211], in the data set with Vero cells, the “LC50 (IV)” value is on record as “A (key: A: >50 μg/mL; B: 50-25 μg/mL; C: <25 μg/mL)”.
With `CC(=O)Nc1cc(C(=O)Nc2sccc2C(=O)N2CCOCC2)ccn1` [Compound 181], the MIC in the data set on Mtb [1] is more than 3 µg/mL.
Turning to `CCOC(=O)NC(=O)c1ccsc1NC(=O)c1ccc2c(c1)nc(C(F)(F)F)n2C(C)C` [Compound 204], the MIC in the data set with Mtb [1] is more than 3 µg/mL.
Turning to `CCOC(=O)NC(=O)c1ccsc1NC(=O)c1ccc2[nH]c(S)nc2c1` [Compound 162], the “MIC (II)” value with Mtb [1] is “C (key: A: <1 μg/mL; B: 1-3 μg/mL; C: >3 μg/mL)”.
Take `CCOC(=O)NC(=O)c1ccsc1NC(=O)c1cc2cc(Cl)ccc2[nH]1` [Compound 196]: in the data set with Mtb [1], the MIC is more than 3 µg/mL.
`CCNC(=O)Nc1cc(C(=O)Nc2sccc2C(=O)NC(=O)OCC)ccn1` [Compound 7]: the MIC in the data set with Mtb [1] is less than 1 µg/mL.
Turning to `CCOC(=O)NC(=O)c1ccsc1NC(=O)c1cncnc1` [Compound 164], the MIC in the data set with Mtb [1] was more than 3 µg/mL.
On to `COC(=O)NC(=O)c1ccsc1NC(=O)c1ccc(Oc2ccccc2)cc1` [Compound 200], for which the MIC in the data set with Mtb [1] was more than 3 µg/mL.
Regarding `O=C(Nc1sccc1C(=O)NCc1ccccc1)c1nc2ccccc2s1` [Compound 191], the MIC in the data set with Mtb [1] was more than 3 µg/mL.
As for `CCOC(=O)NC(=O)c1ccsc1NC(=O)c1sc2ncnc(O)c2c1C` [Compound 151], the MIC with Mtb [1] was more than 3 µg/mL.
As for `CCOC(=O)NC(=O)c1ccsc1NC(=O)Cc1ccccc1` [Compound 171], in the data set on Mtb [1], the MIC was more than 3 µg/mL.
Take `CCOC(=O)NC(=O)c1ccsc1NC(=O)c1cnc2[nH]ccc2c1` [Compound 159]: the “MIC (II)” value with Mtb [1] is “C (key: A: <1 μg/mL; B: 1-3 μg/mL; C: >3 μg/mL)”.
Regarding `CCOC(=O)NC(=O)c1ccsc1NC(=O)c1ccc2[nH]c(C)nc2c1` [Compound 199], the “MIC (II)” value in the data set on Mtb [1] is “C (key: A: <1 μg/mL; B: 1-3 μg/mL; C: >3 μg/mL)”.
As to `CCOC(=O)NC(=O)c1ccsc1NC(=O)c1nn(C)c2ccccc12` [Compound 201], the MIC with Mtb [1] was more than 3 µg/mL.
With `CCOC(=O)NC(=O)c1ccsc1NC(=O)c1c(F)cc(F)cc1F` [Compound 176], the MIC in the data set with Mtb [1] was more than 3 µg/mL.
`CCOC(=O)N(C)C(=O)c1ccsc1NC(=O)c1ccnc(NC(C)=O)c1` [Compound 189]: the MIC in the data set with Mtb [1] is more than 3 µg/mL.
On to `CCOC(=O)NC(=O)c1ccsc1NC(=O)c1csc(-c2ccncc2)n1` [Compound 2], for which the MIC in the data set with Mtb [1] is 1 to 3 µg/mL (≈ 2.48 to 7.45 µM).
For `CCOC(=O)NC(=O)c1ccsc1NC(=O)c1nc(C)cs1` [Compound 161], the MIC with Mtb [1] is more than 3 µg/mL.
In the case of `NC(=O)c1cnn(-c2ccccc2)c1NC(=O)c1nc2ccccc2s1` [Compound 179], the MIC in the data set on Mtb [1] was more than 3 µg/mL.
With `CCOC(=O)NC(=O)c1ccsc1NC(=O)c1ccc(S(C)(=O)=O)c(N)c1` [Compound 150], the MIC in the data set with Mtb [1] is more than 3 µg/mL.
As to `CC(=O)Nc1cc(C(=O)Nc2sccc2C(=O)Nc2ccc(Cl)cc2)ccn1` [Compound 182], in the data set with Mtb [1], the MIC is more than 3 µg/mL.
Regarding `CCOC(=O)NC(=O)c1ccsc1NC(=O)C1CCCCC1` [Compound 177], the MIC with Mtb [1] is more than 3 µg/mL.
As to `CCOC(=O)NC(=O)c1ccsc1NC(=O)c1nc2cc(OC)ccc2s1` [Compound 6], the MIC in the data set on Mtb [1] is less than 1 µg/mL.
As for `CCOC(=O)NC(=O)c1ccsc1NC(=O)c1ccncc1` [Compound 170], in the data set on Mtb [1], the MIC is more than 3 µg/mL.
Still for that read-out and setting: the result for `CCOC(=O)NC(=O)c1ccsc1NC(=O)c1ccncn1` [Compound 165] reads more than 3 µg/mL.
As for `COC(=O)CCCNC(=O)c1ccsc1NC(=O)c1nc2ccccc2s1` [Compound 237], the “LC50 (IV)” value in the data set with Vero cells was “B (key: A: >50 μg/mL; B: 50-25 μg/mL; C: <25 μg/mL)”.
Regarding `CC(=O)Nc1cc(C(=O)Nc2sccc2S(C)(=O)=O)ccn1` [Compound 184], the MIC with Mtb [1] was more than 3 µg/mL.
Turning to `CCOC(=O)NC(=O)c1ccsc1NC(=O)c1ccnc(NC(=O)c2ccc(F)cc2)c1` [Compound 8], the MIC with Mtb [1] fell in the range of 1 to 3 µg/mL (≈ 2.19 to 6.57 µM).
Same read-out and setting: the result for `CCOC(=O)NC(=O)c1ccsc1NC(=O)c1c(F)ccc(OC)c1F` [Compound 173] reads more than 3 µg/mL.
Regarding `CC(=O)Nc1cc(C(=O)Nc2nnc(C(F)(F)F)s2)ccn1` [Compound 190], in the data set with Mtb [1], the MIC was more than 3 µg/mL.
Regarding `CCOC(=O)NC(=O)c1ccsc1NC(=O)c1ncccn1` [Compound 197], the MIC in the data set with Mtb [1] is more than 3 µg/mL.
Same read-out and setting: under `CCOC(=O)NC(=O)c1ccsc1NC(=O)c1cccc(F)c1` [Compound 172] stands more than 3 µg/mL; under `CCOC(=O)NC(=O)c1ccsc1NC(=O)c1ccccn1` [Compound 167], more than 3 µg/mL; under `CCOC(=O)NC(=O)c1ccsc1NC(=O)c1ccc(C(C)(F)F)nc1` [Compound 157], more than 3 µg/mL.
On to `CCOC(=O)NC(=O)c1ccsc1NC(=O)c1ccnc(C(F)(F)F)c1` [Compound 178], for which, in the data set on Mtb [1], the MIC is more than 3 µg/mL.
For the compound `CCOC(=O)NC(=O)c1ccsc1NC(=O)c1ccc2cccnc2n1` [Compound 69], the MIC with Mtb [2] is less than 1 µg/mL; in the data set on Mtb [3], less than 5 µg/mL. This compound also showed a CC50 in “in vitro” of less than 25 µg/mL.
In the case of `Cc1c(-c2ccccc2)sc(NC(=O)c2nc3ccccc3s2)c1C(=O)N1CCOCC1` [Compound 169], in the data set on Mtb [1], the MIC is more than 3 µg/mL.
The same measure, in the same setting: the result for `CCOCCOCCOC(=O)NC(=O)c1ccsc1NC(=O)c1nc2ccccc2s1` [Compound 206] reads more than 3 µg/mL.
In the case of `O=C(NC(=O)c1ccsc1NC(=O)c1cnc2ccnn2c1)OCCC(F)(F)F` [Compound 322], the MIC is more than 3 µg/mL in the data set with Mtb [2] and more than 25 µg/mL in the data set with Mtb [3]. The compound further came in with a CC50 in “in vitro” of less than 25 µg/mL.
